Assay results: ChEMBL document CHEMBL1201862, “PubChem BioAssay data set” (2004)
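All cell lines were grown in 96-well plates and treated with compound for 48 hours. Here, GI50 denotes the concentration required for 50% inhibition of growth.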 Active and inactive are the calls of the source. Cut-off read from the data, not from the text of the source: active = GI50 up to about 1.1 µM and inactive = higher.

Experiments:
Test in all cases: NCI-60 cell line screen, 48 h
OVCAR-8 = test system: OVCAR-8
TK-10 = test system: TK-10
EKVX = test system: EKVX
A549 = test system: A549
NCI-H522 = test system: NCI-H522
SK-OV-3 = test system: SK-OV-3
IGROV-1 = test system: IGROV-1
SW-620 = test system: SW-620
KM12 = test system: KM12
HT-29 = test system: HT-29
SNB-78 = test system: SNB-78
KM-20L2 = test system: KM-20L2
SNB-75 = test system: SNB-75
A498 = test system: A498
OVCAR-4 = test system: OVCAR-4
NCI-H226 = test system: NCI-H226
Malme-3M = test system: Malme-3M
RXF 393 = test system: RXF 393
XF498 = test system: XF498
CAKI-1 = test system: CAKI-1
HCT-116 = test system: HCT-116
MOLT-4 = test system: MOLT-4
M14 = test system: M14
SF-295 = test system: SF-295
NCI-H460 = test system: NCI-H460
COLO 205 = test system: COLO 205
NCI-H23 = test system: NCI-H23
UACC-257 = test system: UACC-257
RPMI-8226 = test system: RPMI-8226
UO-31 = test system: UO-31
LOX IMVI = test system: LOX IMVI
SF-539 = test system: SF-539
DMS-273 = test system: DMS-273
K562 = test system: K562
HL-60 = test system: HL-60
SK-MEL-5 = test system: SK-MEL-5
SK-MEL-2 = test system: SK-MEL-2
SF-268 = test system: SF-268
HOP-62 = test system: HOP-62
LXFL 529 = test system: LXFL 529
UACC-62 = test system: UACC-62
HCT-15 = test system: HCT-15
DMS-114 = test system: DMS-114
SK-MEL-28 = test system: SK-MEL-28
SR = test system: SR
SN12C = test system: SN12C
OVCAR-3 = test system: OVCAR-3
ACHN = test system: ACHN
OVCAR-5 = test system: OVCAR-5
HOP-92 = test system: HOP-92
SNB-19 = test system: SNB-19
CCRF-CEM = test system: CCRF-CEM
DLD-1 = test system: DLD-1
HCC 2998 = test system: HCC 2998
U-251 = test system: U-251
M19-MEL = test system: M19-MEL
786-0 = test system: 786-0

Measured: GI50

CC1=CC(=C(c2ccc(N)c(C)c2)c2ccc(N)c(C)c2)C=CC1=N
inactive: OVCAR-8 1.37 µM | TK-10 15.5 µM | EKVX 4.89 µM | A549 3.6 µM | NCI-H522 3.03 µM | SK-OV-3 4.66 µM | IGROV-1 13.4 µM | SW-620 3.8 µM | KM12 3.24 µM | HT-29 3.64 µM | SNB-78 4.84 µM | KM-20L2 3.33 µM | SNB-75 1.51 µM | A498 9.16 µM | OVCAR-4 10.5 µM | NCI-H226 3.93 µM | Malme-3M 2.91 µM | RXF 393 5.92 µM | XF498 2.91 µM | CAKI-1 15.2 µM | HCT-116 3.37 µM | MOLT-4 3.65 µM | M14 4.95 µM | NCI-H460 3.61 µM | COLO 205 1.93 µM | NCI-H23 2.97 µM | UACC-257 3 µM | RPMI-8226 2.18 µM | UO-31 28.3 µM | LOX IMVI 4.2 µM | SF-539 2.67 µM | DMS-273 2.45 µM | K562 2.92 µM | HL-60 3.72 µM | SK-MEL-5 2.07 µM | SK-MEL-2 2.73 µM | HOP-62 2.79 µM | LXFL 529 1.27 µM | UACC-62 2.69 µM | DMS-114 1.2 µM | SK-MEL-28 5.71 µM | SR 2.99 µM | OVCAR-3 4.49 µM | ACHN 8.45 µM | OVCAR-5 5.42 µM | HOP-92 3.32 µM | CCRF-CEM 2.86 µM | DLD-1 3.78 µM | HCC 2998 3.44 µM | M19-MEL 2.65 µM | 786-0 3.11 µM
active: SF-295 0.873 µM | SF-268 0.499 µM | SN12C 0.33 µM | SNB-19 0.689 µM | U-251 0.411 µM
12.8 µM: HCT-15

COc1cc(CNc2ccc(C)cc2)cc(OC)c1OC
active: OVCAR-8 0.65 µM | A549 0.423 µM | SK-OV-3 0.251 µM | IGROV-1 0.577 µM | SW-620 0.11 µM | KM-20L2 0.159 µM | SNB-75 0.21 µM | RXF 393 0.301 µM | MOLT-4 0.175 µM | NCI-H460 0.471 µM | COLO 205 0.151 µM | NCI-H23 0.277 µM | RPMI-8226 0.5 µM | UO-31 0.843 µM | LOX IMVI 0.46 µM | DMS-273 0.0925 µM | K562 0.148 µM | HL-60 0.0948 µM | SK-MEL-5 0.923 µM | SK-MEL-2 0.417 µM | SF-268 0.615 µM | HOP-62 0.44 µM | LXFL 529 0.46 µM | DMS-114 0.225 µM | OVCAR-3 0.179 µM | OVCAR-5 1.02 µM | SNB-19 0.356 µM | CCRF-CEM 0.259 µM | DLD-1 0.375 µM | U-251 0.252 µM | M19-MEL 0.252 µM | 786-0 0.376 µM
inactive: XF498 1.29 µM | UACC-257 7.05 µM
